Source: ChEMBL document CHEMBL4665756, “Synthesis, crystal structure and biological activity of novel analogues of tricyclic drugs” (Bioorg Med Chem Lett, 2020)

Legend:
[1] = target: Sodium-dependent serotonin transporter (Homo sapiens, UniProt P31645); assay: Binding affinity to SERT (unknown origin)
Histamine H1 receptor = Histamine H1 receptor (Homo sapiens, UniProt P35367); assay: Binding affinity to H1 receptor (unknown origin)
[2] = target: 5-hydroxytryptamine receptor 7 (Homo sapiens, UniProt P34969); assay: Binding affinity to 5HT7 receptor (unknown origin)
[3] = target: 5-hydroxytryptamine receptor 6 (Homo sapiens, UniProt P50406); assay: Binding affinity to 5HT6 receptor (unknown origin)
[4] = target: 5-hydroxytryptamine receptor 2A (Homo sapiens, UniProt P28223); assay: Binding affinity to 5HT2A receptor (unknown origin)
[5] = target: T1, 5-hydroxytryptamine receptor 1A (Homo sapiens, UniProt P08908); assay: Binding affinity to 5HT1A receptor (unknown origin)
T1 sequence (P08908 whole entry): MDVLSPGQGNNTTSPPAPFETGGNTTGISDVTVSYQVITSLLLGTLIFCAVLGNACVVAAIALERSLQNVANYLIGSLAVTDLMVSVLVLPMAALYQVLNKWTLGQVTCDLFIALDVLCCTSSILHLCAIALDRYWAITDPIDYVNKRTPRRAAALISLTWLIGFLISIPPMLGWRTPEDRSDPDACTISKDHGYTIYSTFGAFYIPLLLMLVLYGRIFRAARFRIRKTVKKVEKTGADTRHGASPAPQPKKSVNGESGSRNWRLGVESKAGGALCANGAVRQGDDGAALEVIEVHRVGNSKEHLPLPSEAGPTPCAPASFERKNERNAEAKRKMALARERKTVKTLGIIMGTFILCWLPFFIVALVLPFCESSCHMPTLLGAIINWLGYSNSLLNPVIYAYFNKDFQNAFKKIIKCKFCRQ

D(2) dopamine receptor = D(2) dopamine receptor (Homo sapiens, UniProt P14416); assay: Binding affinity to D2 receptor (unknown origin)
Chain of D(2) dopamine receptor (P14416 whole entry): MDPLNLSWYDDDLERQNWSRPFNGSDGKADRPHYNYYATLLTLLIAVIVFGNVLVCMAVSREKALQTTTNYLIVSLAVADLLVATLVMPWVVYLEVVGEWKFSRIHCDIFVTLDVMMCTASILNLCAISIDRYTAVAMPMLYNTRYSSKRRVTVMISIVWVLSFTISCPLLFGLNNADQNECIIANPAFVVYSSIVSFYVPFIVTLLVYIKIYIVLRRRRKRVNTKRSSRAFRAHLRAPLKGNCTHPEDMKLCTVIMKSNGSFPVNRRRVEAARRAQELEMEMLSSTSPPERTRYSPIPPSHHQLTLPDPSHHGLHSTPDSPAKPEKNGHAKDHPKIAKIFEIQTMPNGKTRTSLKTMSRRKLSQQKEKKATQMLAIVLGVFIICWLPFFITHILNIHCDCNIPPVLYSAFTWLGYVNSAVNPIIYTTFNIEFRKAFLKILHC

Chain of 5-hydroxytryptamine receptor 6 (P50406 whole entry): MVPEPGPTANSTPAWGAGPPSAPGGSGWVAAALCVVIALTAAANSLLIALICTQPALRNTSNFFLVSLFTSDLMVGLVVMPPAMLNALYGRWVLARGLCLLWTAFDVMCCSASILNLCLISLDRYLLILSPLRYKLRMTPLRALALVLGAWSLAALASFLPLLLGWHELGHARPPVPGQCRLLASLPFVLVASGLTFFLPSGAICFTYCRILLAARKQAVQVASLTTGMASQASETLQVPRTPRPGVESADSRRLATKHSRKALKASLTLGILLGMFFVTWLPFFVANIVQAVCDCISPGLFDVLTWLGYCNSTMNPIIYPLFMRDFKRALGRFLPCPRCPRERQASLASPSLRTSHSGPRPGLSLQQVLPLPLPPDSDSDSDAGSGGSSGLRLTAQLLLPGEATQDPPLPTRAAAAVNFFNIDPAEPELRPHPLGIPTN
Chain of 5-hydroxytryptamine receptor 2A (P28223 whole entry): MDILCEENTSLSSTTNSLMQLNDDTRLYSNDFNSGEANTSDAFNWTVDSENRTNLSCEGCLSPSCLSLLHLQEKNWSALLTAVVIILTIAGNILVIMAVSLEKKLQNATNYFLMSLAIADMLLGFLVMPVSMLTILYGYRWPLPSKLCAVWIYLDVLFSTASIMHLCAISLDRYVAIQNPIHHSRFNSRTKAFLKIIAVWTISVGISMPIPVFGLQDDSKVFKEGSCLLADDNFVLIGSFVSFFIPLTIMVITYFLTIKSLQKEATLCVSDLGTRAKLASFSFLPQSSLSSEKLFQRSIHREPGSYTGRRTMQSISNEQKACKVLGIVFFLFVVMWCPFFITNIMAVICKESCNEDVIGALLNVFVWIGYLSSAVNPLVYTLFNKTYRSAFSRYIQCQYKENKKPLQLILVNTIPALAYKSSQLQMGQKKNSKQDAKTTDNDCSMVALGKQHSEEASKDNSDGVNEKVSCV
Chain of 5-hydroxytryptamine receptor 7 (P34969 whole entry): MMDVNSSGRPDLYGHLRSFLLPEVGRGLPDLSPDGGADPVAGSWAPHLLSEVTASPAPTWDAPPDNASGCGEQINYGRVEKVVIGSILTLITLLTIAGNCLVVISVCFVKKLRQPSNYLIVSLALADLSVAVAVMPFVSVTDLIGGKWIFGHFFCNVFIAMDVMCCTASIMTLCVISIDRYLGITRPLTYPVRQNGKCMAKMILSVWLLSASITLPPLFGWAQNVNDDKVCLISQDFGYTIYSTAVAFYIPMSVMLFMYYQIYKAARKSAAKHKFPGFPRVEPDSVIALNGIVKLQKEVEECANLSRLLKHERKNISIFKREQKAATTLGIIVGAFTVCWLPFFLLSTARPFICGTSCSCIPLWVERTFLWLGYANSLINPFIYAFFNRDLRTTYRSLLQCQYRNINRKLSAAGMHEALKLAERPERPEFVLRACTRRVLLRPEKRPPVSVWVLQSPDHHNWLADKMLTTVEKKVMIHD
Chain of Sodium-dependent serotonin transporter (P31645 whole entry): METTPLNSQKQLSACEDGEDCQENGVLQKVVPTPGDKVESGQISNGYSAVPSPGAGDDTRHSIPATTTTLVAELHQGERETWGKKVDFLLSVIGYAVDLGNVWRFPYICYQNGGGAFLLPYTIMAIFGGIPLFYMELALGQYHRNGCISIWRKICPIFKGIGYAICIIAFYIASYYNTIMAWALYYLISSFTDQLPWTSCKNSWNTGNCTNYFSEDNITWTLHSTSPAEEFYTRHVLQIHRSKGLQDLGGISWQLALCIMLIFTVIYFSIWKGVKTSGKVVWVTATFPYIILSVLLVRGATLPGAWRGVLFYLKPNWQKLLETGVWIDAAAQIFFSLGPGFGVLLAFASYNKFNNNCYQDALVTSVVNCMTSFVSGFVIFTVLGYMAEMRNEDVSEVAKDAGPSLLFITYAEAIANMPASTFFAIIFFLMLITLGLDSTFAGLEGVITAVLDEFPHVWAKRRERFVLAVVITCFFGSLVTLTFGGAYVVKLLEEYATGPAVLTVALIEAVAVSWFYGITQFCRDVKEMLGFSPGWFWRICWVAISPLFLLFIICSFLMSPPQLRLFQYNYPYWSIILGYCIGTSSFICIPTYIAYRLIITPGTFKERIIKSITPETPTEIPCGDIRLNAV
Chain of Histamine H1 receptor (P35367 whole entry): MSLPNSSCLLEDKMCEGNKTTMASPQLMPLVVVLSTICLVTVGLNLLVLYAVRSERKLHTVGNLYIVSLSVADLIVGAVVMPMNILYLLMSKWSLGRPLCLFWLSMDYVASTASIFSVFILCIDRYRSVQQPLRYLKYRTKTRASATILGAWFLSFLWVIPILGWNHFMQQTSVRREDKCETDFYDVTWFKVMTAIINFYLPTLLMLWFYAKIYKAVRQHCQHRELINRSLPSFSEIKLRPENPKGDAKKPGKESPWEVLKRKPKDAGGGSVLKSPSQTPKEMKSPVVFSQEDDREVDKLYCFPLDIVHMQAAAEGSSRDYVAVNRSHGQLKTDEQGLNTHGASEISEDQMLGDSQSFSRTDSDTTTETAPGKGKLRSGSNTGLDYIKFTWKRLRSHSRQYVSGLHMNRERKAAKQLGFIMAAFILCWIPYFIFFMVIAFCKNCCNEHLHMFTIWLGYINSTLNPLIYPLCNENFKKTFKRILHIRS

SMILES | Ki ([1]; read-out: Ki) [µM] | Ki (Histamine H1 receptor; read-out: Ki) [µM] | Ki [2] [µM] | Ki [3] [µM] | Ki [4] [µM] | Ki [5] [µM] | Ki [1] | Ki (D(2) dopamine receptor) [µM] | Ki (Histamine H1 receptor)
COc1cc2c(cc1OC)N(CCN(C)C)C(=O)c1ccccc1N(C)C2=O | > 100 | > 10 |  |  |  |  |  |  | 
CN(C)CCN1C(=O)c2ccccc2N(C)C(=O)c2ccccc21 |  | > 10 | > 100 | 40.4 | > 100 | > 100 | Not Active | 65.3 | 
CN(C)CCN1C(=O)c2ccccc2CCc2ccccc21 | 12.4 | 0.29 |  |  |  |  |  |  | 
CN(C)CCN1C(=O)c2ccccc2/C=C\c2ccccc21 | 4.6 | 0.12 | 85.2 | 20.1 | 74.4 | 77.2 |  | 11.6 | 
CN(C)CCN1C(=O)c2ccccc2C(=O)N(Cc2ccccc2)c2ccccc21 |  |  |  |  |  |  | Not Active |  | Not Active
CN(C)CCN1C(=O)c2cc(Cl)ccc2N(C)C(=O)c2cc3ccccc3cc21 |  | > 5 |  |  |  |  | Not Active |  | 
CN(C)CCCN1C(=O)c2ccccc2/C=C\c2ccccc21 | 36.9 | 0.43 | > 100 | 23.4 | 17.1 | 41.6 |  | 9 | 
CN(C)CCCN1C(=O)c2ccccc2CCc2ccccc21 | > 100 | 0.81 |  |  |  |  |  |  | 
CN(C)CCCN1C(=O)c2ccccc2C(=O)N(Cc2ccccc2)c2ccccc21 | > 100 |  |  |  |  |  |  |  | Not Active
COc1cc2c(cc1OC)N(CCCN(C)C)C(=O)c1ccccc1N(C)C2=O |  |  |  |  |  |  | Not Active |  | Not Active
O=C1c2ccccc2/C=C\c2ccccc2N1CCCN1CCOCC1 | > 100 |  | > 100 | 75.3 | > 100 | 39.4 |  | 19.1 | Not Active
CN(C)CCCN1C(=O)c2cc(Cl)ccc2N(C)C(=O)c2cc3ccccc3cc21 |  |  |  |  |  |  | Not Active |  | Not Active
CN1CCN(CCCN2C(=O)c3ccccc3/C=C\c3ccccc32)CC1 |  | > 5 | > 100 | 21.1 | 48.3 | 87.7 | Not Active | 7.5 | 
CN(C)CCCN1C(=O)c2ccccc2N(C)C(=O)c2ccccc21 |  | > 10 |  |  |  |  | Not Active |  | 
CN(C)CCN1C(=O)c2ccccc2N(C)c2ccccc21 [DIBENZEPIN] | 10.9 | 0.02 | 12.3 | 3.3 | 7.2 | 2.5 |  | 30.2 | 
